# Measurements reported in patent US20080280933A1, “BENZIMIDAZOLYL COMPOUNDS” (priority 2006, published 2008).
# Like-named read-outs stand apart in the source and are kept apart here.
# Molecular target: T1, mGluR2 receptor (metabotropic glutamate receptor 2) (Homo sapiens, UniProt Q14416)
# T1 construct: expressed in transfected cells
# Experiment: mGluR2 Potentiator Screen, FLIPR, EC10-EC20 glutamate challenge
# Assay type: cell-based
# Description: Procedure for mGluR2 Potentiator Screen NLB Methods EC10-EC20 Challenge Cell Culture and Plating:
# Cells used for this screen are HEK cells stably transfected with the mGluR2 receptor (metabotropic glutamate receptor 2) and the Gα15 G protein. Clones were identified by functional activity (FLIPR). Cells are grown in growth media containing: DMEM High Glucose with Glutamine and Na Pyruvate (GIBCO), 10% (v/v) Heat inactivate FBS (GIBCO) G418 500 ug/ml (from 50 mg/ml stock) (GIBCO) and Blasticidin 3 ug/ml (from 5 mg/ml stock made in H2O) (Invitrogen).
# 2 days before the assay cell are trypsinized with 0.25% trysin/EDTA (GIBCO), spun down at 1000 rpm for 5 minutes, resuspended in growth media and plated on polystyrene 384 well black wall/clear bottom poly-D-lysine coated plates at a density of approximately 18,000 cells/well in a volume of 50 μL per well. One day before the assay the growth media is removed from the plates by flicking and replaced with media containing DMEM High Glucose without Glutamine and Na Pyruvate (GIBCO) and 10% (v/v) dialyzed FBS (GIBCO). The reason for the removal of glutamine the day before the assay is to minimize the amount of glutamate that will be present during the assay, as endogenous glutarnate released from the cells can reduce the fluorescent response and interfere with the FLIPR screen.
# FLIPR Methods and Data Analysis:
# On the day of the assay, the FLIPR assay is performed using the following methods:
# The pH is adjusted to 7.4 with 1M NaOH. Prepare a 2 mM (approx.) stock solution of Fluo-4.am (Molecular Probes) dye in DMSO −22 μl DMSO per 50 ug vial (440 μL per 1 mg vial). Make a 1 mM (approx.) flou-4, PA working solution per vial by adding 22 μl of 20% pluronic acid (PA) (Molecular Probes) in DMSO to each 50 ug vial (440 μL per 1 mg vial). Prepare a 250 mM Probenecid (Sigma) stock solution by dissolving 0.71 g into 5 ml 1N NaOH and 5 ml assay buffer (for each liter of assay wash buffer). Make 4 uM (approx.) dye incubation media by adding 2.50 ug vials per 11 ml DMEM high glucose without glutamine (220 ml per 1 mg vial). Add 110 μL probenecid stock per 11 ml (2.5 mM final [concentration]). To the dye media add 3 units/ml of glutamic-pyruvic transaminase (GPT, Sigma) and 3 mM Na Pyruvate. The assay has worked with dye concentrations from 2 uM to 8 uM dye as well. To the assay buffer from drug preparation, add 1.83 mls DMSO and 400 μL. 15.8% P104 (from New Leads biology) per liter for final concentrations of 0.18% DMSO and 0.006% P104. To the assay buffer for cell washing, add probenecid in the same manner and concentration that was used for the dye media.
# Remove growth media from cell plates by flicking. Add 50 μl/well dye solution. Incubate 1 hour at 37° C. and 5% CO2. Remove dye solution and wash 3 times with assay buffer+probenecid (100 μl probenecid stock per 10 ml buffer), leaving 30 μL/well assay buffer. Wait at least 10-15 minutes. Compounds and agonist challenge additions are performed with the FLIPR. The in addition is for test compounds, which are added as 15 μL of 4× [concentration] of potentiator. The second 2nd addition is 15 μL of 4× [concentration] of agonist or challenge. This achieves 1× concentration of all compounds only after 2nd addition. The 1st and 2nd additions are performed separately using the FLIPR, which give 2 different data files. Compounds are pretreated at least 30 minutes before agonist addition.
# Results are analyzed by dividing the peak fluorescent value of the FLIPR response by the […] to achieve a ratio response. The ratios are then analyzed by curve fitting programs. Since potent compounds can give an inverted U dose response curve (due to effects on endogenous glutamate by the potentiators) points are deleted at concentrations higher than the concentration that gives the maximum effect. Maximum values for dose response curves (forced fitting) are derived from standards on the plate.
# Compound Preparation and Glutamate Challenge: […]
# T1 sequence (Q14416 19-872, species assumed): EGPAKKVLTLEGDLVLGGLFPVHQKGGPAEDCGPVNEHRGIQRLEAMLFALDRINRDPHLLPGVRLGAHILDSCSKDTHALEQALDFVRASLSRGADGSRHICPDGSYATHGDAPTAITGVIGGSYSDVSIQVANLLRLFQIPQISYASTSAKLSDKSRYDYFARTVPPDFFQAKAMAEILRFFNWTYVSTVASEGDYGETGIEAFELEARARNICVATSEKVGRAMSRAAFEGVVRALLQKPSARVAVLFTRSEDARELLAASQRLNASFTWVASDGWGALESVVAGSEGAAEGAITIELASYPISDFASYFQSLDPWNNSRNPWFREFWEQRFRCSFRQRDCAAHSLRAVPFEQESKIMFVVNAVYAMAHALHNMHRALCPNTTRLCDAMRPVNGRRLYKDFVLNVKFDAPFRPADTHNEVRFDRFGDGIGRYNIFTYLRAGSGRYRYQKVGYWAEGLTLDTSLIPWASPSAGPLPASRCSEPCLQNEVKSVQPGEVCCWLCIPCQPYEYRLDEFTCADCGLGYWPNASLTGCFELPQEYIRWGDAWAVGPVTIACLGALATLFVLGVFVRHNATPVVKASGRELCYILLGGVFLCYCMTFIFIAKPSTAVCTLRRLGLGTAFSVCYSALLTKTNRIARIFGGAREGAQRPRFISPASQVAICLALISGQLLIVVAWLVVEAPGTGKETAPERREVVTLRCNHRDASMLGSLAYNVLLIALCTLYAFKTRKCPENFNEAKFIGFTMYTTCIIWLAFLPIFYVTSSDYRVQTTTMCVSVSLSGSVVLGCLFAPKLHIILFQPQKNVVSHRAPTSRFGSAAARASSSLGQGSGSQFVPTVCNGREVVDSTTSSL
structure (smiles),measurement,setting,value
"Cn1c(CN2CCC(c3ccccc3F)CC2)nc2cc(C(C)(C)O)ccc21 [Entry 298, 2-(2-((4-(2-fluorophenyl)piperidin-1-yl)methyl)-1-methyl-1H-benzo[d]imidazol-5-yl)propan-2-ol]",EC50,read-out: EC50,> 7.34 µM
"Cn1c(CN2CCC(c3ccccc3F)CC2)nc2c(F)cccc21 [Entry 325, 4-Fluoro-2-((4-(2-Fluorophenyl)piperidin-1-yl)methyl)-1-methyl-1H-benzo[d]imidazole]",EC50,read-out: EC50,0.0338 µM
COc1cc(C(F)(F)F)ccc1C1CCN(Cc2nc3ccccc3n2C)CC1 [Entry 354],EC50,"listed as 1, read-out: EC50",> 6.17 µM
same,EC50,read-out: EC50,< 0.0193 µM
"Cn1c(CN2CCC(c3ccccc3F)CC2)nc2cc(C(N)=O)ccc21 [Entry 363, 2-((4-(2-Fluorophenyl)piperidin-1-yl)methyl)-1-methyl-1H-benzo[d]imidazol-5-carboxamide]",EC50,read-out: EC50,2.02 µM
CC(C)C(=O)N1CC2(CCN(Cc3nc4ccccc4n3C)CC2)c2cc(F)ccc21 [compound 17],EC50,read-out: EC50,3.31 µM
Cc1nnsc1C(=O)N1CC2(CCN(Cc3nc4ccccc4n3C)CC2)c2cc(F)ccc21 [compound 18],EC50,read-out: EC50,2.45 µM
CC(=O)N1CC2(CCN(Cc3nc4ccccc4n3C)CC2)c2cc(F)ccc21 [compound 19],EC50,read-out: EC50,4.79 µM
CCC(=O)N1CC2(CCN(Cc3nc4ccccc4n3C)CC2)c2cc(F)ccc21 [compound 20],EC50,read-out: EC50,3.39 µM
Cc1ccc2c(c1)C1(CCN(Cc3nc4ccccc4n3C)CC1)CN2C(=O)c1snnc1C [compound 21],EC50,read-out: EC50,1.16 µM
CC(=O)N1CC2(CCN(Cc3nc4ccccc4n3C)CC2)c2cc(C)ccc21 [compound 22],EC50,read-out: EC50,3.83 µM
CCC(=O)N1CC2(CCN(Cc3nc4ccccc4n3C)CC2)c2cc(C)ccc21 [compound 23],EC50,read-out: EC50,0.926 µM
Cc1ccc2c(c1)C1(CCN(Cc3nc4ccccc4n3C)CC1)CN2C(=O)C(C)C [compound 24],EC50,read-out: EC50,1.62 µM
Cc1nnsc1C(=O)N1CC2(CCN(Cc3nc4ccccc4n3C)CC2)c2cc(Cl)ccc21 [compound 25],EC50,read-out: EC50,1.35 µM
CC(=O)N1CC2(CCN(Cc3nc4ccccc4n3C)CC2)c2cc(Cl)ccc21 [compound 26],EC50,read-out: EC50,2.45 µM
CCC(=O)N1CC2(CCN(Cc3nc4ccccc4n3C)CC2)c2cc(Cl)ccc21 [compound 27],EC50,read-out: EC50,1.06 µM
Cc1nnsc1C(=O)N1CC2(CCN(Cc3nc4ccccc4n3C)CC2)c2ccccc21 [compound 28],EC50,read-out: EC50,2.11 µM
Cc1ccc2c(c1)C1(CCN(Cc3nc4ccccc4n3C)CC1)CN2C(=O)c1ccoc1 [compound 29],EC50,read-out: EC50,2.43 µM
COC(=O)CCCCC(=O)N1CC2(CCN(Cc3nc4ccccc4n3C)CC2)c2cc(C)ccc21 [compound 30],EC50,read-out: EC50,4.89 µM
Cc1ccc2c(c1)C1(CCN(Cc3nc4ccccc4n3C)CC1)CN2C(=O)c1c(C)noc1C [compound 31],EC50,read-out: EC50,2.04 µM
COC(=O)CCCC(=O)N1CC2(CCN(Cc3nc4ccccc4n3C)CC2)c2cc(C)ccc21 [compound 32],EC50,read-out: EC50,1.85 µM
CCOC(=O)CCC(=O)N1CC2(CCN(Cc3nc4ccccc4n3C)CC2)c2cc(C)ccc21 [compound 33],EC50,read-out: EC50,1.35 µM
COC(=O)CCC(=O)N1CC2(CCN(Cc3nc4ccccc4n3C)CC2)c2cc(C)ccc21 [compound 34],EC50,read-out: EC50,3.15 µM
Cc1ccc2c(c1)C1(CCN(Cc3nc4ccccc4n3C)CC1)CN2C(=O)c1cccnc1 [compound 35],EC50,read-out: EC50,3.61 µM
Cc1ccc2c(c1)C1(CCN(Cc3nc4ccccc4n3C)CC1)CN2C(=O)C1CC1 [compound 36],EC50,read-out: EC50,2.33 µM
Cc1ccc2c(c1)C1(CCN(Cc3nc4ccccc4n3C)CC1)CN2C(=O)c1ccco1 [compound 37],EC50,read-out: EC50,1.82 µM
CCCC(=O)N1CC2(CCN(Cc3nc4ccccc4n3C)CC2)c2cc(C)ccc21 [compound 38],EC50,read-out: EC50,0.388 µM
Cc1noc(C)c1C(=O)N1CC2(CCN(Cc3nc4ccccc4n3C)CC2)c2cc(Cl)ccc21 [compound 39],EC50,read-out: EC50,2.83 µM
CCOC(=O)CCC(=O)N1CC2(CCN(Cc3nc4ccccc4n3C)CC2)c2cc(Cl)ccc21 [compound 41],EC50,read-out: EC50,1.63 µM
COC(=O)CCC(=O)N1CC2(CCN(Cc3nc4ccccc4n3C)CC2)c2cc(Cl)ccc21 [compound 42],EC50,read-out: EC50,3.23 µM
COCC(=O)N1CC2(CCN(Cc3nc4ccccc4n3C)CC2)c2cc(Cl)ccc21 [compound 44],EC50,read-out: EC50,> 5.1 µM
Cn1c(CN2CCC3(CC2)CN(C(=O)C2CC2)c2ccc(Cl)cc23)nc2ccccc21 [compound 45],EC50,read-out: EC50,1.12 µM
Cn1c(CN2CCC3(CC2)CN(C(=O)c2ccco2)c2ccc(Cl)cc23)nc2ccccc21 [compound 46],EC50,read-out: EC50,> 4.86 µM
COc1ccccc1C1CCN(Cc2nc3ccccc3n2C)CC1 [compound 47],EC50,read-out: EC50,0.0771 µM
Cn1c(CN2CCC3(CC2)CN(C(=O)c2ccc4nccnc4c2)c2ccccc23)nc2ccccc21 [compound 48],EC50,read-out: EC50,> 6.63 µM
Cn1c(CN2CCC3(CC2)CN(C(=O)c2ccsc2)c2ccccc23)nc2ccccc21 [compound 49],EC50,read-out: EC50,1.2 µM
Cn1c(CN2CCC3(CC2)CN(C(=O)c2ccoc2)c2ccccc23)nc2ccccc21 [compound 50],EC50,read-out: EC50,4.93 µM
COC(=O)CCCCC(=O)N1CC2(CCN(Cc3nc4ccccc4n3C)CC2)c2ccccc21 [compound 51],EC50,read-out: EC50,7.13 µM
Cn1c(CN2CCC3(CC2)CN(C(=O)C2COc4ccccc4O2)c2ccccc23)nc2ccccc21 (stereo not shown) [compound 52],EC50,read-out: EC50,1.39 µM
Cc1cc(C(=O)N2CC3(CCN(Cc4nc5ccccc5n4C)CC3)c3ccccc32)n(C)n1 [compound 53],EC50,read-out: EC50,> 6.29 µM
Cc1noc(C)c1C(=O)N1CC2(CCN(Cc3nc4ccccc4n3C)CC2)c2ccccc21 [compound 54],EC50,read-out: EC50,> 5.56 µM
Cn1c(CN2CCC3(CC2)CN(C(=O)c2cccc(C#N)c2)c2ccccc23)nc2ccccc21 [compound 55],EC50,read-out: EC50,3.01 µM
Cn1c(CN2CCC3(CC2)CN(C(=O)c2ccc(C#N)cc2)c2ccccc23)nc2ccccc21 [compound 56],EC50,read-out: EC50,1.75 µM
Cn1c(CN2CCC3(CC2)CN(C(=O)COc2ccccc2)c2ccccc23)nc2ccccc21 [compound 57],EC50,read-out: EC50,0.508 µM
Cn1c(CN2CCC3(CC2)CN(C(=O)COCc2ccccc2)c2ccccc23)nc2ccccc21 [compound 58],EC50,read-out: EC50,0.589 µM
Cn1c(CN2CCC3(CC2)CN(C(=O)c2cccs2)c2ccccc23)nc2ccccc21 [compound 59],EC50,read-out: EC50,3.11 µM
Cn1c(CN2CCC3(CC2)CN(C(=O)C2CCC2)c2ccccc23)nc2ccccc21 [compound 60],EC50,read-out: EC50,2.22 µM
Cn1c(CN2CCC3(CC2)CN(C(=O)C2CC2)c2ccccc23)nc2ccccc21 [compound 61],EC50,read-out: EC50,4.01 µM
CCCCC(=O)N1CC2(CCN(Cc3nc4ccccc4n3C)CC2)c2ccccc21 [compound 62],EC50,read-out: EC50,0.261 µM
Cn1c(CN2CCC3(CC2)CN(C(=O)c2ccco2)c2ccccc23)nc2ccccc21 [compound 63],EC50,read-out: EC50,4.51 µM
CCCC(=O)N1CC2(CCN(Cc3nc4ccccc4n3C)CC2)c2ccccc21 [compound 64],EC50,read-out: EC50,1.41 µM
COc1cccc(C2CCN(Cc3nc4ccccc4n3C)CC2)c1 [compound 65],EC50,read-out: EC50,0.241 µM
CC(=O)C1(c2ccccc2)CCN(Cc2nc3ccccc3n2C)CC1 [compound 66],EC50,EC50 (uM),> 5.23 µM
Cn1c(CN2CC[C@@H]3c4ccccc4CC[C@@H]3C2)nc2ccccc21 [compound 67],EC50,read-out: EC50,0.693 µM
Cn1c(CN2CCC(O)(c3cc(Br)cc(Br)c3)CC2)nc2ccccc21 [compound 68],EC50,read-out: EC50,1.24 µM
COc1cccc2c1CCCC21CCN(Cc2nc3ccccc3n2C)CC1 [compound 69],EC50,read-out: EC50,> 6.97 µM
Cn1c(CN2CCC(O)(c3ccc(Cl)c(C(F)(F)F)c3)CC2)nc2ccccc21 [compound 71],EC50,read-out: EC50,4.35 µM
COc1cccc(C2(C#N)CCN(Cc3nc4ccccc4n3C)CC2)c1 [compound 72],EC50,EC50 (uM),10.6 µM
